Assay results taken from article PMC9810691, “Structure-guided peptide engineering of a positive allosteric modulator targeting the outer pore of TRPV1 for long-lasting analgesia” (Nature Communications, 2023).
“Also recorded” adds a separate entry of the source. Where a SMILES comes first, the peptide text is derived from it. Bridges are numbered along the chain shown (N, C = ends).

Key:
TRPV3 = assay: Selectivity: 2-APB-evoked TRPV3 current; type: cell-based, murine; details: 30 μM 2-APB; normalized to 1 mM 2-APB; mean ± S.E.M., n = 4
Description: (§1) HEK293T cells are cultured using DMEM medium contained 10% FBS in a cell incubator with 5% CO2 at 37 °C. Plasmids of murine TRPV1, TRPV2, TRPV3 and human TRPA1 are labeled with YFP or GFP as indicators for subsequent electrophysiological recordings. cDNA constructs of ion channels were transiently transfected with Lipofectamine 2000 (Invitrogen, Carlsbad, CA). And one or 2 days after transient transfection, electrophysiological recordings were performed.
(§2) Patch-clamp recordings were carried out with a HEKA EPC10 amplifier controlled by PatchMaster software (HEKA). Patch pipettes were prepared from borosilicate glass and fire-polished to resistance of 3–8 MΩ by P-97 puller. Both bath solution and pipette solution contained 130 mM NaCl, 10 mM glucose, 0.2 mM EDTA, and 3 mM HEPES and were adjusted to pH 7.2–7.4 with NaOH for whole-cell recordings. For solution with pH lower than 6.5, HEPES was replaced by MES. Whole-cell recordings were performed at ±80 mV. Current was sampled at 10 kHz and filtered at 2.9 kHz. All recordings were performed at room temperature (25 °C). A gravity-driven system (RSC-200, Bio-Logic) with freely rotated perfusion tubes was used for the perfusion of peptide or ligands. Bath and ligand solution were delivered through separate tubes to minimize the mixing of solutions. Patch pipette holding cells was placed in front of the perfusion tube outlet for perfusion.

TRPV2 = assay: Selectivity: 2-APB-evoked TRPV2 current; type: cell-based, murine; details: 500 μM 2-APB; normalized to 4 mM 2-APB; mean ± S.E.M., n = 4
Description: as §1, §2

TRPA1 = assay: Selectivity: AITC-evoked TRPA1 current; type: cell-based, human; details: 30 μM AITC; normalized to 1 mM AITC; mean ± S.E.M., n = 4
Description: as §1, §2

[1] = cited from earlier work
Text: Transient receptor potential vanilloid 1 (TRPV1) ion channel is a polymodal nociceptor broadly expressed in sensory neurons involved in pain sensation, making this channel a target for analgesia. Since TRPV1 deletion in rodents led to significant tolerance to noxious heat hyperalgesia[3],[4], antagonists of TRPV1 became the first choice to develop analgesic agents targeting TRPV1 in the past decades. Pharmacological inhibition TRPV1 indeed effectively alleviates dental, rectal, and thermal pain[5],[6]. However, TRPV1 also plays critical roles in thermoregulation, thus its antagonists suf ... || Positive allosteric modulator (PAM) is defined as a ligand without direct activation of its target, but potentiates the activity of agonists of targets. PAMs of TRPV1 have shown significant analgesic effect by inducing calcium overloading in previous reports[11],[12]. For instance, MRS1477 is developed as a small molecule PAM of TRPV1[13]. […] However, as both De1 and De3 bind to the intracell ... || TRPV1 plays a critical role in the pathogenesis of chronic pain[30]–[33], and has been a long-pursued target for pain management. To circumvent the side effects of the first-generation channel inhibitors occurred in clinical trials, alternative strategies such as the PAMs of TRRV1 have been developed.

TRPV1 [2] = details: cited from earlier work
Text: Positive allosteric modulator (PAM) is defined as a ligand without direct activation of its target, but potentiates the activity of agonists of targets. PAMs of TRPV1 have shown significant analgesic effect by inducing calcium overloading in previous reports[11],[12]. For instance, MRS1477 is developed as a small molecule PAM of TRPV1[13]. […] For instance, noxious heat, proton, and divalent cations induce conformational changes in the outer pore to activate TRPV1[27]–[29].

TRPV1 E652D [3] = target: T1, TRPV1 E652D (Mus musculus, UniProt Q704Y3, E652D); assay: Calcium imaging, TRPV1 mutant E652D; type: cell-based, murine; details: 30 μM s-RhTx with 10 nM capsaicin; n = 45
Description: (§3) Site mutations of mTRPV1 were generated by Fast Mutagenesis Kit (Takara Bio). Primers used to generate point mutations are summarized in Supplementary Table 1. All mutations were confirmed by sequencing.
(§4) Calcium imaging assay was performed as previously described[12],[20]. In brief, HEK293T cells expressing TRPV1 were incubated with 2 μM Fluo-4 AM (Thermo Fisher) in 2 mM calcium Ringer’s solution (140 mM NaCl, 5 mM KCl, 2 mM MgCl2, 2 mM CaCl2, 10 mM glucose, and 10 mM HEPES, pH 7.4). Fluorescence images of HEK293T cells were acquired with Nikon Eclipse Ti2 microscope with optiMOS charge-coupled device camera controlled by the Ocular Software (Molecular Devices). Fluo-4 AM was excited at 500/20-nm excitation, and fluorescence emission was detected at 535/30-nm. Fluorescence images were analyzed with Fiji software and Office Excel.

mouse hind paw skin = type: in vivo, mice; details: 1 week; folded s-RhTx with capsaicin; n = 3; words
Text: (§5) Figure R3. […] (A) Statistical […]
(§6) results of hind paw thickness in mice.
(§7) N.S., not significant, two-way ANOVA. n = 9 mice in each group. (B) H&E staining showing the results of cell […]
(§8) N.S., not significant, n = 3 mice in each group. Scale bar, 50 μm. All data were shown as mean ± s.e.m. […]
(§9) different experiment should be performed.
(§10) Response: We thank the reviewer for the insightful comments. We also agree with the reviewer that the local injections of s-RhTx in this study are not likely to change body temperature. To test […]
(§11) 1) in mice and measured body temperature. […]
(§12) n = 6 mice in each group. No significance in two-way ANOVA. All data were shown as mean ± s.e.m. […]

[4] = type: in vivo, mice; details: i.p. 10 mg kg-1 peptide with capsaicin 1 mg kg-1; n = 6; words
Text: as §5, §6, §7, §8, §9, §10, §11, §12

mouse hind paw = type: in vivo, mice; details: 2 μg folded s-RhTx with capsaicin 200 ng; n = 9; words
Text: as §5, §6, §7, §8, §9, §10, §11, §12

TRPV1 [5] = target: T2, TRPV1 (Mus musculus, UniProt Q704Y3); assay: Whole-cell patch clamp: potentiation of proton-evoked TRPV1 current; type: cell-based, murine; details: pH 6.5; Hill fit; n = 4 cells; read-out: EC50, enhancement of proton-induced current
Description: as §1
as §2, with “Patch pipette holding cells was placed in front of the perfusion tube outlet for perfusion.” left out
(§13) Data from whole-cell recordings were analyzed in Igor Pro version 5.05 (WaveMatrix). […]

[6] = tested on: Trpv1+ nerve fibers, Trpv1-Ai32 / Trpv1-Ai14 mice; assay: Trpv1+ intra-epidermal nerve fiber (IENF) quantification; type: in vivo; details: folded s-RhTx without capsaicin; words
Description: (§14) Adult C57 BL/6 mice (male, 8–10 weeks) and Trpv1^-/- mice (Jax Strain #:003770) were used for behavioral studies. To specifically label Trpv1-positive nerve fibers in skin tissues, Trpv1-Cre mice[36] (Jax Strain #:017769) were crossed with floxed reporter lines (Ai32, Jax Strain #:012569 or Ai14, Jax Strain #:007914) to get the transgenic reporter (Trpv1-Ai32 or Trpv1-Ai14) mice. Mice were group-housed at 22–24 °C and relative humidity of 30–70% under the 12 h light-dark cycle with access to standard food and water ad libitum. All the animal procedures were approved by the Institutional Animal Care & Use Committee (IACUC) of Zhejiang University.
(§15) After appropriate survival times, the mice were deeply anesthetized with isoflurane and perfused through the ascending aorta with PBS, followed by 4% PFA. After the perfusion, the hind paw glabrous skins and L4-L6 DRGs were removed and postfixed in the same fixative overnight. Skin sections (30 μm) and DRG sections (10 μm) were cut in a cryostat. Sections were blocked with 2% BSA for 2 h at room temperature and then incubated with Deep-red 640/660-conjugated Nissl (1:1000) at room temperature for 2 h. Sections were then incubated with DAPI (1:10,000, Vector Laboratories, catalog H-1200) for 5 min, followed by three times washing with PBS for 5 min each. The stained and mounted sections were examined with a Nikon fluorescence microscope, and images were captured with a charge-coupled device Spot camera. For quantification analysis, at least three sections from each mouse were selected, and at least three mice were analyzed in each group. To evaluate Trpv1-positive nerve fiber degeneration, transgenic reporter (Trpv1-Ai32 or Trpv1-Ai14) mice were used for the quantification of intra-epidermal nerve fiber (IENF) density. IENF density was calculated by counting the number of IENF crossing the epidermis-dermis boundary within unit length.

TRPV1 [7] = target: T2, TRPV1; assay: Calcium imaging, HEK293T cells expressing TRPV1; type: cell-based, murine; details: 30 μM s-RhTx with 10 nM capsaicin; n = 12
Description: as §1, §4

TRPV1 E652D [8] = target: T1, TRPV1 E652D; assay: Mutant cycle analysis: concentration response, Kd and L on TRPV1 E652D; type: cell-based, murine; details: mean ± S.E.M.
Description: In this analysis, the ligand binding (represented by Kd) and subsequent conformational changes leading to channel opening (represented by L) were separately quantified. Kd and L were calculated by the formulae: EC50 = Kd/(1 + L) and Po max = L/(1 + L), when Po max and EC50 are experimentally measured[20],[21]. Previously we have successfully performed this analysis to establish the interactions between peptide toxin BmP01 and TRPV1[16].
as §3
Patch-clamp recordings were carried out with a HEKA EPC10 amplifier controlled by PatchMaster software (HEKA). Patch pipettes were prepared from borosilicate glass and fire-polished to resistance of 3–8 MΩ by P-97 puller. Both bath solution and pipette solution contained 130 mM NaCl, 10 mM glucose, 0.2 mM EDTA, and 3 mM HEPES and were adjusted to pH 7.2–7.4 with NaOH for whole-cell recordings. […]
as §13
The strength of coupling was determined by the coupling energy (kT multiplied by LnΩ, where k is the Boltzmann constant and T is temperature in Kelvin). LnΩ was calculated by the following equation: LnΩ=LnKd_1⋅Kd_4/Kd_2⋅Kd_3

[9] = tested on: DRG neurons, Trpv1-Ai14 mice; assay: Trpv1+ and Nissl+ neurons in DRGs; type: in vivo; details: for Trpv1+ neurons (% of all neurons): sheet S5e
Description: as §14, §15

[10] = local delivery; words
Description: 20 μl of CFA was injected first to induce a chronic pain model. […] All data were shown as mean ± S.E.M. Source data are available as a Source Data file.
Complete Freund’s adjuvant (CFA) was injected at a volume of 20 μl to induce chronic inflammatory pain.

TRPV1 [11] = target: T2, TRPV1; assay: Whole-cell patch clamp: potentiation of capsaicin-evoked TRPV1 current; type: cell-based, murine
Description: as §1
as §2, with “Patch pipette holding cells was placed in front of the perfusion tube outlet for perfusion.” left out
as §13

T2 sequence (Q704Y3 whole entry): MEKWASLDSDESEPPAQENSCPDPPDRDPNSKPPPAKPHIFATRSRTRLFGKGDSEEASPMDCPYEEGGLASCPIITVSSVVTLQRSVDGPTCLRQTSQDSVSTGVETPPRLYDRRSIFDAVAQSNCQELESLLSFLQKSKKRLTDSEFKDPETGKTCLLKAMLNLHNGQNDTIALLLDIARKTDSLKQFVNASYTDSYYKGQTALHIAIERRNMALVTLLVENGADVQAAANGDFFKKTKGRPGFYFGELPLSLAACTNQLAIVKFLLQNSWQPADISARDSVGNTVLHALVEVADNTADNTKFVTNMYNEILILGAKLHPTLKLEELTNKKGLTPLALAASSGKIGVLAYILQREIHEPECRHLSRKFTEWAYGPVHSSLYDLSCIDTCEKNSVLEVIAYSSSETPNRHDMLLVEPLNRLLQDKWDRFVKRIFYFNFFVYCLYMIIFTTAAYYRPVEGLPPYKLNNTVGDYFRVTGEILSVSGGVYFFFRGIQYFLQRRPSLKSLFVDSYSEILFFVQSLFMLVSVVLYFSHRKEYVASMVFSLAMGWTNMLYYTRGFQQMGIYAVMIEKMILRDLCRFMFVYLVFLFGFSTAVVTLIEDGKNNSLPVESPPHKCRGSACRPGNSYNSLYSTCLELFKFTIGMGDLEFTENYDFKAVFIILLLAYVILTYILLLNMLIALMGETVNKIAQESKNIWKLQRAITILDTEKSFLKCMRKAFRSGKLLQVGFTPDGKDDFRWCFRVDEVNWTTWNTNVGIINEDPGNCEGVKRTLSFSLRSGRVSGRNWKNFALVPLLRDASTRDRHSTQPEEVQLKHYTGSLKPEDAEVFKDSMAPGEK
T1 sequence (Q704Y3 whole entry E652D): as the sequence (Q704Y3 whole entry) above, with E652D counted along it

## NCCOB(c1ccccc1)c1ccccc1 [2-APB]
TRPV3
  normalized TRPV3 current, 2-APB alone: 7.08 ± 3.57%
TRPV2
  normalized TRPV2 current, 2-APB alone: 7.06 ± 2.25%

## C=CCN=C=S [AITC]
TRPA1
  normalized TRPA1 current, AITC alone: 41.06 ± 12.85%

## CCOC(=O)C1=C(c2ccccc2)NC(C)=C(C(=O)SCCOC)C1CC (centres unmarked) [MRS1477]
[1]
  duration of analgesic effects: about two weeks
TRPV1 [2]
  TRPV1 activation by capsaicin: enhances TRPV1 activation by capsaicin

## C=C(C)[C@]12C[C@@H](C)[C@@]34O[C@](Cc5ccccc5)(O[C@@H]1[C@@H]3C=C(COC(=O)Cc1ccc(O)c(OC)c1)C[C@]1(O)C(=O)C(C)=C[C@@H]41)O2 [resiniferatoxin]
[1]
  cell death in TRPV1-expressing neurons: induces cells death in TRPV1-expressing neurons

## CC[C@H](C)[C@H](NC(=O)[C@@H]1CSSC[C@@H]2NC(=O)[C@H]([C@@H](C)O)NC(=O)[C@H](C(C)C)NC(=O)CNC(=O)[C@H](CC(N)=O)NC(=O)[C@@H](NC(=O)[C@@H]3CCCN3)CSSC[C@H](NC(=O)[C@H](CCCNC(=N)N)NC(=O)[C@H](Cc3ccc(O)cc3)NC(=O)CNC(=O)[C@H](CO)NC(=O)[C@@H]3CCCN3C2=O)C(=O)N[C@@H](CO)C(=O)N[C@@H]([C@@H](C)CC)C(=O)N[C@@H](C(C)C)C(=O)N[C@@H](CC(=O)O)C(=O)N[C@@H](CCCCN)C(=O)N[C@@H](CCC(N)=O)C(=O)N1)C(=O)N[C@@H](CCCCN)C(=O)N[C@@H](CCCCN)C(=O)N[C@@H](CCC(=O)O)C(=O)O [s-RhTx] (H-PCNGVTCPSGYRCSIVDKQCIKKE-OH; disulfide 2-13, 7-20)
TRPV1 E652D [3]
  increase of intracellular calcium fluorescence, E652D: 47.5 ± 0.05%
Mouse hind paw skin
  recruitment of immune cells: did not induce the recruitment
[4]
  body temperature change, systemic: didn’t change body temperature
Mouse hind paw
  local inflammation of hind paw: no obvious local
TRPV1 [5]
  EC50: 1580 ± 500 nM
[6]
  IENF degeneration, peptide alone: did not induce
TRPV1 [7]
  enhancement of intracellular calcium, WT TRPV1: 56.09 ± 8.62%
TRPV1 E652D [8]
  EC50: 7160 ± 1420 nM
[9]; co-injection with capsaicin, 1 and 4 weeks, words, listed as folded s-RhTx
  Trpv1+ neuron proportion and total neuron density in DRGs: did not change at 1 week; also recorded: not significantly changed
[9]; 1 week, Mouse # 1
  Trpv1+ neurons (% of all neurons): 33.4%
[9]; 1 week, Mouse # 2
  Trpv1+ neurons (% of all neurons): 33.4%
[9]; 1 week, Mouse # 3
  Trpv1+ neurons (% of all neurons): 35.2%
[9]; 4 weeks, Mouse # 1
  Trpv1+ neurons (% of all neurons): 37.1%
[9]; 4 weeks, Mouse # 2
  Trpv1+ neurons (% of all neurons): 32.1%
[9]; 4 weeks, Mouse # 3
  Trpv1+ neurons (% of all neurons): 33.0%
[10]
  body temperature change: did not cause any changes in the body temperature
TRPV1 [11]
  EC50: 890 ± 450 nM
